Consider two molecules from patent publication US8575310B2, “Bioactive pentapeptides from rice bran and use thereof” (Board of Trustees of the University of Arkansas, priority 2009, dated 2013).

Format in all cases: cell-based, human
Data set [1] relates to Caco-2 cells. Description: Trypan blue dye exclusion assay, viability of Caco-2 cells. As to conditions: 200 μM concentration. The protocol:
Human Cancer Cell Cultures. Human colon epithelial cancer cell line Caco-2, liver epithelial cancer cell line HepG2 and breast epithelial cancer cell line HTB-26 were cultured separately at 37° C. in Dulbecco's Modified Eagles Medium (DMEM) in the presence of 10% fetal bovine serum, supplemented with 1 mM L-glutamine, sodium pyruvate, 1 mM sodium bicarbonate, and 50 μg/mL gentamycin. Human lung epithelial cancer cell line NCI-H1299 was cultured in RPMI-1640 medium supplemented with 10% fetal bovine serum. After cell growth reached 70%, cell viability was monitored by employing the trypan blue dye exclusion assay after peptide treatments. Briefly, the monolayer was allowed to grow for 2-3 days at 37° C. on 24-well flat-bottom plates. One hundred microliters (100 μL) of rice bran peptide fractions at 1 mg/mL protein content was added to the cultures. For positive control genistein at 200 and 400 μM in saline and for negative control saline alone was used. After 24-48 h of treatments, the medium was removed, and the cells were briefly dissociated with 0.1% trypsin and 0.53 mM ethylenediaminetetraacetic acid (EDTA) solution. Following this, 0.5% trypan blue dye mixed in growth medium was added to each well. Samples were then aspirated from each well and loaded onto chambers in a hemocytometer cell, and cell counts were taken. […]

Data set [2] relates to amyloid-induced neuroblastoma cells (IMR-32). Kind of data set: Protection against amyloid beta (1-42) toxicity in neuroblastoma cells, MTS assay. To be noted: compared to amyloid-induced cells not treated with peptides. The protocol:
Evaluation of Anti-Alzheimer's Disease Activity: Human neuroblastoma cells (IMR-32-ATCC Number CCL-127) was used as model system to evaluate the protective role of rice bran peptide fractions against amyloid beta (1-42) (Cat. No. PP69, EMD Chemicals, Inc., San Diego, Calif.) dependent toxicity. Human neuroblastoma cells were grown in the presence of beta amyloid peptide with and without bran peptide fractions at different levels. Cell survival to the amyloid-induced neuroblastoma cells upon bran peptide treatments was examined by the MTS [(3-(4,5-dimethylthiazole-2-yl)-5-(3-carboxymethoxyphenyl)-2-(4-sulfophenyl)-2H-tetrazolium, inner salt] assay, and compared to the cytotoxicity observed with amyloid-induced neuroblastoma cells.
Neuroblastoma cells were treated with amyloid peptide followed by treatment with rice bran peptide fractions. Cytotoxicity to the amyloid-induced neuroblastoma cells was examined by the MTS assay.
A general note: Formazan colour is commonly taken as a measure of viable cells.

The test system of data set [3] is colon cancer cells. To be noted: pH 7. As to the method:
An RSM design with a 3-factorial model was designed to use combinations of pH, RH (relative humidity), temperature and degree of glycosylation to evaluate enhanced anti-cancer activity of a modified (glycosylated) peptide. Peptide-glucose mixture samples were prepared at the following conditions/combinations: RH 55, 65, & 75 at pHs 6, 7 and 8 maintained at 40, 50 and 60° C. temperatures and tested for growth inhibition activity on colon cancer cells. The degree of glycosylation increased with increasing time at varying RH, and achieved a maximum of ˜20% degree of glycosylation.
Optimization for Degree of Glycosylation: The bioactive pentapeptide (0.02 g) (SEQ ID NO: 1) and D-glucose (0.002 g) were dissolved in water to give a 10% (w/v) protein solution. The solution pH was adjusted to varying pHs based on RSM design (6, 7, 8) and stirred for 10 min, and freeze-dried. The freeze-dried mixture was placed on an aluminum plate, and incubated at 50° C. at varying relative humidity ([…], 65%, 75%) based on the RSM design illustrated below in Table 3.

No end group written: not given here.

`O=c1c(-c2ccc(O)cc2)coc2cc(O)cc(O)c12` [Genistein]: the “viable cells on Caco-2 cell line” value in data set [1] was found to be 20000 viable cells/mL.

“EQRPR [bioactive pentapeptide, Glu-Gln-Arg-Pro-Arg]”: the “reduction in cytotoxicity of amyloid-induced neuroblastoma cells” value in data set [2] was around 45%. Also, the “cancer cell activity inhibition” value in data set [3] is recorded as around 80%.
